Measured values reported in patent US20040116397A1, “Agents and methods for the prevention of initial onset of cancers, the treatment of cancers, and the recurrence of existing cancers” (priority 2003, published 2004).
Entries after “also recorded” stand apart in the source; their conditions may differ.

What was measured:
epidermal hyperplasia = assay: Mouse two-stage carcinogenesis model (DMBA/TPA), skin hyperplasia; assay type: in vivo; conditions: 4 weeks, Sencar mice
Source text: To test the efficacy of 2-ME in preventing or reversing neoplastic progression, the present inventors have conducted investigations using the well-established mouse two-stage carcinogenesis model. This model was developed to study the complex multistep process of epidermal carcinogenesis since initiation and promotion are involved in the development of cancer in humans. […] Although treatment of mouse skin with a single large dose of DMBA can induce papillomas in about 10-20 weeks and carcinomas in about 20-60 weeks, repetitive doses are necessary to induce tumors at lower levels. No tumors are formed at a sub-threshold dose of DMBA. However, if TPA is applied to the mice initiated with a sub threshold dose of DMBA, multiple papillomas appear after a short latency period, followed by squamous cell carcinomas after a longer period. Tumors cannot be induced with repetitive treatment of TPA in the absence of initiation. Such phenotypic changes produced in the epidermis by TPA treatment are critical for neoplastic progression. One such characteristic feature of neoplastic progression is hyperplasia.
Female Sencar mice were divided into 7 groups each with 5 animals. […]

[1] = test system: prostate cancer cell lines (LNCaP, DU145) and brain and/or nervous system cancer cell line (DAOY); assay: Cell proliferation and induction of apoptosis, 2-ME versus 16-ES; assay type: cell-based
Source text: Building on these findings, further experiments have helped to elucidate the structural bases for 2-ME's molecular efficacy. A number of experiments have been conducted using 2-ME and 16-epiestriol (hereinafter “16-ES”), an analogue of 2-ME that lacks the methoxy group at the second position. In a multitude of experiments, using prostate cancer cell lines (both androgen-dependent (LNCaP), and androgen-independent (DU145) cells), and a brain and/or nervous system cancer cell line (DAOY), the present inventors have studied the effects of 2-ME and 16-ES on cell proliferation and the induction of apoptosis, in a number of ways. […] Further, it also indicates efficacy of a series of compounds with various moieties at the second position in the treatment of cancer. […] Thus, the present inventors now propose a method of synthesizing a number of analogues of 2-ME that will exceed the efficacy of 2-ME in the prevention of cancer.

endothelial cell = conditions: background, reference (3); cited from earlier work
p53 in DU145 cells = assay: p53 EMSA of whole cell extracts; assay type: cell-based; conditions: DU145 extract, 3 μM, 48 h
Experimental: (§1) FIG. 4 depicts an electrophoretic mobility shift assay (EMSA) of whole cell extracts (prepared from LNCaP and DU145 cells that were untreated (C) or treated (T) with 3 μM 2-ME for 48 h) using p53 consensus oligonucleotide as radiolabled probe. The indicated amounts (μg) of the extract was incubated with approximately 0.2 ng of labeled probe and the DNA-protein complexes were resolved by 4% non-denaturing gel electrophoresis. Unbound (F) and bound complexes (B) are indicated. Lane 1 is free probe; lane 2, 4, 6 and 8 are with 2.5 μg protein; lanes 3, 5, 7 and 9 are with 5 μg protein. Lanes 2, 3, 6 and 7 are untreated; lanes 4, 5, 8 and 9 are treated.
As shown in FIG. 4 (Electrophoretic mobility shift assay (EMSA) of extracts prepared from LNCaP and DU145 cells following treatment with 2-ME using p53 oligonucleotide probe) and FIG. 5 (Western blot analysis of extracts following 2-ME treatment with p53 antibody), the proteins from LNCaP and DU145 cells bound to the p53 consensus sequence (FIG. 4, lanes 2 and 3). […] One would expect to see induced expression of p53 following 2-ME treatment, if it is involved in mediating apoptosis.

DU145 cells [2] = assay: Cell growth, CELLTITER96 AQUEOUS ONE tetrazolium assay; assay type: cell-based
Experimental: (§2) Referring to FIG. 1, actively growing LNCaP and DU145 cells were plated in 96-well plates at a density of 10^5 cells per well. After 24 hours in a 37° C. incubator with 5% CO2, the cells were treated with the indicated concentration of 2-ME. Control cells received only the vehicle (DMSO). Cell growth was monitored every 24 hours using the […]96 AQUEOUS ONE solution assay containing a tetrazolium compound (Promega Corporation, Madison, Wis.).
(§3) The assay is based on the principle that actively growing cells generate reducing equivalents such as NADH that is necessary for the cells to reduce the tetrazolium compound to formazan product that is detected by measuring the absorbance at […]. Increase in absorbance indicates cell viability.
(§4) The data reflected in FIG. 1 represents an average of five replicates and the experiment was conducted twice. […] It is known that there are differences of AR and p53 between these two cell types.

DU145 cells [3] = assay: Cell cycle distribution by flow cytometric analysis (Krishan stain); assay type: cell-based; conditions: DU145, 3 μM, 16 hours
Experimental: Referring to FIG. 3, since 2-ME inhibited the growth of LNCaP and DU145 cells, the present inventors set out to examine whether 2-ME treatment altered the distribution of cells during cell cycle progression. Logarithmically growing DU145 cells were plated in 60 mm dishes as described above at a density of 10^5 cells per dish. After 24 hours of growth at 37° C. in an incubator with 5% CO2, half the dishes were treated with 3 μM of 2-ME and the other half was left untreated. Cells were observed every 24 hours for morphological changes following treatment with 2-ME. After 16 hours of incubation cells were harvested by trypsinization and the cell pellet was resuspended in 1 ml of Krishan stain and subjected to flow cytometric analysis at the Flow Cytometry facility of the University of Colorado Comprehensive Cancer Center, Denver, Colo. […] This could be due to alteration of expression and/or activities of cell cycle regulatory proteins in the G2/M phase.

DMBA-TPA induced tumors = assay: Regression of DMBA-TPA induced tumors in mice; assay type: in vivo, mouse; conditions: 2 mg topically twice a week for four weeks
Experimental: Referring to FIG. 12, after 4 weeks, animals were sacrificed and the dorsal skin was used for histology. […] In addition, topical application of 2 mg of 2-ME during tumor initiation-promotion stage inhibited hyperplasia by about 14%. […] In addition, the present inventors have treated mice that have developed the tumors using DMBA-TPA protocol with 2 mg of 2-ME topically twice a week for four weeks to see if tumors regress. During this four-week study, we have noticed that the number of tumors reduced from 10 to 8 in one animal (one such tumor is indicated by an arrow in the mouse II—see FIG. 13) and no change in the other animal.

LNCaP cells = assay: Cell growth, CELLTITER96 AQUEOUS ONE tetrazolium assay; assay type: cell-based; conditions: for inhibition of growth: 72 hours
Experimental: as §2, §3, §4
Cells were treated with either eugenol (0.25, 0.5, 0.75 or 1 mM) or 2-ME (0.5, 1, 2 or 3 mM) or both (0.25, 0.5, 0.75 or 1 mM of eugenol along with 0.5 mM of 2-ME). Cell growth was measured following 72 hours of treatment as described above.

p53 in LNCaP cells = assay: p53 EMSA and Western blot of whole cell extracts; assay type: cell-based
Experimental: as §1
FIG. 5 depicts a Western blot analysis of whole cell extracts from LNCaP and DU145 cells following treatment with 2-ME for 48 hours using a p53 antibody (FL-393, Santa Cruz). 25 μg of extract was fractionated on 10% denaturing gel and transferred to nitrocellulose membrane. After blocking the membrane, it was incubated for 2 hours with the p53 antibody. This was followed by incubation with horseradish peroxidase-conjugated anti-rabbit IgG antibody (Sigma) in the blocking solution. Bound antibody was detected by Supersignal West Pico Chemiluminescent Substrate, following the manufacturer's directions (Pierce, Rockford, Ill.). […]

COc1cc2c(cc1O)CC[C@@H]1[C@@H]2CC[C@]2(C)[C@@H](O)CC[C@@H]12 [2-ME, 2-methoxyoestradiol]
reduction of hyperplasia (epidermal hyperplasia; topical 2 mg 5 min before DMBA application): 26%
inhibition of hyperplasia (epidermal hyperplasia; topical 2 mg during tumor initiation-promotion stage): about 14%
inhibition of cancerous cell growth [1]: significantly inhibits cancerous cell growth; also recorded: inhibits the growth
pro-apoptotic effects [1]: has pro-apoptotic effects
endothelial cell proliferation (endothelial cell): inhibit endothelial cell proliferation
loss of DNA-binding activity to p53 consensus sequence (EMSA) (p53 in DU145 cells): not as dramatic as that of LNCaP extracts
inhibition of cell proliferation (DU145 cells [2]; DU145, 2-ME 0.5 to 5 μM, monitored every 24 hours, less sensitive than LNCaP): dose-dependent inhibition of cell proliferation
population of cells in S phase (DU145 cells [3]): no significant change
G2/M population following treatment (DU145 cells [3]; untreated 23%): 46%
G1 population following treatment (DU145 cells [3]; untreated 71%): 46%
size of the tumors (DMBA-TPA induced tumors): reduction in the size of the tumors
number of tumors after treatment (DMBA-TPA induced tumors; one animal, reduced from 10): 8
number of tumors, other animal (DMBA-TPA induced tumors; other animal): no change
inhibition of growth (LNCaP cells; 0.5 mM of 2-ME): about 20%
inhibition of cell proliferation (LNCaP cells; 2-ME 0.5 to 5 μM, monitored every 24 hours): dose-dependent inhibition of cell proliferation
DNA-binding activity to p53 consensus sequence (EMSA) (p53 in LNCaP cells; 3 μM, 48 h): lost their binding activity
p53 expression (Western blot) (p53 in LNCaP cells; 48 hours): decrease in its expression

C[C@]12CC[C@@H]3c4ccc(O)cc4CC[C@H]3[C@@H]1C[C@H](O)[C@@H]2O [16-ES, 16-epiestriol]
inhibition of cancerous cell growth [1]: does not

C=CCc1ccc(O)c(OC)c1 [eugenol]
IC50 (DU145 cells [2]; Homo sapiens, DU-145, DU145 cells, read-out: concentration necessary for 50% inhibition of growth): > 2000 µM
inhibition of growth (LNCaP cells; 0.25 mM of eugenol): about 30%
IC50 (LNCaP cells; Homo sapiens, read-out: concentration necessary for 50% inhibition of growth): ~750 µM
